Results: PubChem BioAssay AID192 (DTP/NCI, 2004)
“And” between values parts separate entries of the source, which are not always exact repeats. Equal entries are not always repeated. Inconclusive results and toxic doses are left out. Rule for the calls: active = survival T/C of 150% or more; inactive = T/C below 125% in these data. Square brackets hold non-standard residues; d marks the D form. Peptide text beside a SMILES is read from it. ξ: configuration not given here. ξH = NC(Cc1c[nH]cn1)C(=O)O; ξE = NC(CCC(=O)O)C(=O)O

Tested on: BDF1 mice, B16 melanoma ip, median survival T/C
Test: NCI In Vivo Anticancer Drug Screen. Data for tumor model B16 Melanoma (intraperitoneal) in B6D2F1 (BDF1) mice
Conditions: endpoint: median survival time, higher = longer survival
Procedure: The antitumor activity of compounds was measured in mice bearing transplantable tumors. Survival or tumor size were measured and the results are expressed as the measurement made in the treated group (T) divided by the measurement made in the vehicle treated control group (C). The tumor model used in this assay is B16 Melanoma (intraperitoneal) in B6D2F1 (BDF1) mice

[1] = dose: 100.0 mg/kg/injection, schedule: Q01DX009 (ip), vehicle: saline with Tween-80
[2] = dose: 200.0 mg/kg/injection, schedule: Q01DX009 (ip), vehicle: saline with Tween-80
[3] = dose: 400.0 mg/kg/injection, schedule: Q01DX009 (ip), vehicle: saline with Tween-80
[4] = dose: 100.0 mg/kg/injection, schedule: Q01DX009 (ip), vehicle: saline
[5] = dose: 200.0 mg/kg/injection, schedule: Q01DX009 (ip), vehicle: saline
[6] = dose: 50.0 mg/kg/injection, schedule: Q01DX009 (ip), vehicle: saline with Tween-80
[7] = dose: 12.5 mg/kg/injection, schedule: Q01DX009 (ip), vehicle: saline with Tween-80
[8] = dose: 400.0 mg/kg/injection, schedule: Q01DX009 (ip), vehicle: saline
[9] = dose: 50.0 mg/kg/injection, schedule: Q01DX009 (ip), vehicle: saline

Measured: T/C

NC(Cc1ccc(O)cc1)C(=O)O (stereo not drawn)
inactive: [1] 110 % of control | dose: 100.0 mg/kg/injection, schedule: Q04DX003 (ip), vehicle: saline with Tween-80 107 % of control | [2] 87 % of control | dose: 200.0 mg/kg/injection, schedule: Q04DX003 (ip), vehicle: saline with Tween-80 104 % of control | [3] 90 % of control | dose: 400.0 mg/kg/injection, schedule: Q04DX003 (ip), vehicle: saline with Tween-80 104 % of control

COc1cc2ccc(C(C)N)cc2cc1OC (stereo not drawn)
inactive: [4] 97 % of control | [5] 95 % of control

C/C(C/C(C)=N/O)=N/O.C/C(C/C(C)=N/O)=N\O.[Cl][Rh][Cl]
inactive: [6] 96 % of control | [1] 98 % of control | [2] 96 % of control | [3] 92 % of control

Cc1ccc(S(=O)(=O)N(CCCCN(S(=O)(=O)c2ccc(C)cc2)S(=O)(=O)c2ccc(C)cc2)S(=O)(=O)c2ccc(C)cc2)cc1
inactive: dose: 100.0 mg/kg/injection, schedule: Q04DX003 (ip), vehicle: Klucel (hydroxypropylcellulose) (HPC) 95 % of control | dose: 400.0 mg/kg/injection, schedule: Q04DX003 (ip), vehicle: Klucel (hydroxypropylcellulose) (HPC) 112 % of control

COc1ccc(NC(=O)Nc2ccc(C)c(Cl)c2)cc1
inactive: dose: 100.0 mg/kg/injection, schedule: Q01DX009 (sc), vehicle: olive oil, sesame oil, peanut oil 109 % of control | dose: 200.0 mg/kg/injection, schedule: Q01DX009 (sc), vehicle: olive oil, sesame oil, peanut oil 100 % of control | dose: 400.0 mg/kg/injection, schedule: Q01DX009 (sc), vehicle: olive oil, sesame oil, peanut oil 98 % of control

O=C(O)C1OC1C(=O)O (stereo not drawn)
inactive: dose: 75.0 mg/kg/injection, schedule: Q01DX009 (ip), vehicle: saline 120 % of control | dose: 300.0 mg/kg/injection, schedule: Q01DX009 (ip), vehicle: saline 118 % of control

Clc1ccc2c(c1)-c1ccccc1C1=NCCN12
inactive: dose: 5.0 mg/kg/injection, schedule: Q01DX009 (ip), vehicle: saline 108 % of control | dose: 10.0 mg/kg/injection, schedule: Q01DX009 (ip), vehicle: saline 118 % of control

CC(=O)C1=C(C)NC(C)=C(C(C)=O)C1C
inactive: [6] 100 % of control | [1] 95 % of control | [2] 102 % of control

Nc1nc(N)c2cc(CNc3ccc(C(=O)NC(CC(=O)O)CC(=O)O)cc3)ccc2n1
inactive: dose: 0.04 mg/kg/injection, schedule: Q01DX009 (ip), vehicle: Klucel (hydroxypropylcellulose) (HPC) 109 % of control | dose: 0.09 mg/kg/injection, schedule: Q01DX009 (ip), vehicle: Klucel (hydroxypropylcellulose) (HPC) 95 % of control | dose: 0.19 mg/kg/injection, schedule: Q01DX009 (ip), vehicle: Klucel (hydroxypropylcellulose) (HPC) 104 % of control | dose: 0.39 mg/kg/injection, schedule: Q01DX009 (ip), vehicle: Klucel (hydroxypropylcellulose) (HPC) 95 % of control | dose: 0.78 mg/kg/injection, schedule: Q01DX009 (ip), vehicle: Klucel (hydroxypropylcellulose) (HPC) 95 % of control and 112 % of control | dose: 1.56 mg/kg/injection, schedule: Q01DX009 (ip), vehicle: Klucel (hydroxypropylcellulose) (HPC) 112 % of control | dose: 3.12 mg/kg/injection, schedule: Q01DX009 (ip), vehicle: Klucel (hydroxypropylcellulose) (HPC) 93 % of control | dose: 6.25 mg/kg/injection, schedule: Q01DX009 (ip), vehicle: Klucel (hydroxypropylcellulose) (HPC) 93 % of control | dose: 12.5 mg/kg/injection, schedule: Q01DX009 (ip), vehicle: Klucel (hydroxypropylcellulose) (HPC) 90 % of control and 101 % of control and 102 % of control | dose: 25.0 mg/kg/injection, schedule: Q01DX009 (ip), vehicle: Klucel (hydroxypropylcellulose) (HPC) 98 % of control and 124 % of control | dose: 50.0 mg/kg/injection, schedule: Q01DX009 (ip), vehicle: Klucel (hydroxypropylcellulose) (HPC) 99 % of control

C1CCC(=NN=C2CCCCC2)CC1
inactive: dose: 50.0 mg/kg/injection, schedule: Q04DX003 (sc), vehicle: olive oil, sesame oil, peanut oil 111 % of control | dose: 100.0 mg/kg/injection, schedule: Q04DX003 (sc), vehicle: olive oil, sesame oil, peanut oil 95 % of control | dose: 200.0 mg/kg/injection, schedule: Q04DX003 (sc), vehicle: olive oil, sesame oil, peanut oil 102 % of control

BrCC[Se]c1ccccc1
inactive: dose: 6.25 mg/kg/injection, schedule: Q01DX009 (ip), vehicle: saline with Tween-80 103 % of control | [7] 95 % of control | dose: 25.0 mg/kg/injection, schedule: Q01DX009 (ip), vehicle: saline with Tween-80 96 % of control | [6] 104 % of control | [1] 89 % of control

CC(C)C(=O)[O][Sn]([c]1ccccc1)([c]1ccccc1)[c]1ccccc1
inactive: dose: 3.0 mg/kg/injection, schedule: Q01DX009 (ip), vehicle: saline with Tween-80 108 % of control | dose: 6.0 mg/kg/injection, schedule: Q01DX009 (ip), vehicle: saline with Tween-80 105 % of control | dose: 12.0 mg/kg/injection, schedule: Q01DX009 (ip), vehicle: saline with Tween-80 124 % of control | [7] 100 % of control

O=C1NC(=O)c2ccccc21
inactive: [5] 97 % of control | [8] 95 % of control

NCC(=O)NCC(=O)NC(CCC(=O)O)C(=O)O (stereo not drawn) (H-Gly-Gly-[ξE]-OH)
inactive: [9] 101 % of control | [4] 97 % of control | [5] 94 % of control | [8] 94 % of control

NCC(=O)NCC(=O)NC(Cc1cnc[nH]1)C(=O)O (stereo not drawn) (H-Gly-Gly-[ξH]-OH)
inactive: [9] 92 % of control | [4] 99 % of control | [5] 88 % of control | [8] 101 % of control

N#CCc1ccccc1C(=O)O
inactive: dose: 100.0 mg/kg/injection, schedule: Q04DX003 (ip), vehicle: gum acacia 97 % of control
